The values that follow come from publication PMC10363545, “The potential use of glycosyl-transferase inhibitors for targeted reduction of S. mutans biofilms in dental materials” (Scientific Reports, 2023).

Each structure is given as a SMILES string.

A word on the IC50: it is the concentration that gives 50% inhibition.

The target of one experiment is T1, GTF-B (Streptococcus mutans, UniProt P08987).
T1 construct: gene gtfB; recombinant GTF-B
Briefly: pNPG hydrolysis kinetics with recombinant enzyme (Vmax reduced […]); gel zymography at […] ([…] inhibition). Type of experiment: biochemical.

In the next experiment the target is T2, GTF-C (Streptococcus mutans, UniProt P13470).
T2 construct: gene gtfC; recombinant GTF-C
T2 sequence (P13470 35-1455): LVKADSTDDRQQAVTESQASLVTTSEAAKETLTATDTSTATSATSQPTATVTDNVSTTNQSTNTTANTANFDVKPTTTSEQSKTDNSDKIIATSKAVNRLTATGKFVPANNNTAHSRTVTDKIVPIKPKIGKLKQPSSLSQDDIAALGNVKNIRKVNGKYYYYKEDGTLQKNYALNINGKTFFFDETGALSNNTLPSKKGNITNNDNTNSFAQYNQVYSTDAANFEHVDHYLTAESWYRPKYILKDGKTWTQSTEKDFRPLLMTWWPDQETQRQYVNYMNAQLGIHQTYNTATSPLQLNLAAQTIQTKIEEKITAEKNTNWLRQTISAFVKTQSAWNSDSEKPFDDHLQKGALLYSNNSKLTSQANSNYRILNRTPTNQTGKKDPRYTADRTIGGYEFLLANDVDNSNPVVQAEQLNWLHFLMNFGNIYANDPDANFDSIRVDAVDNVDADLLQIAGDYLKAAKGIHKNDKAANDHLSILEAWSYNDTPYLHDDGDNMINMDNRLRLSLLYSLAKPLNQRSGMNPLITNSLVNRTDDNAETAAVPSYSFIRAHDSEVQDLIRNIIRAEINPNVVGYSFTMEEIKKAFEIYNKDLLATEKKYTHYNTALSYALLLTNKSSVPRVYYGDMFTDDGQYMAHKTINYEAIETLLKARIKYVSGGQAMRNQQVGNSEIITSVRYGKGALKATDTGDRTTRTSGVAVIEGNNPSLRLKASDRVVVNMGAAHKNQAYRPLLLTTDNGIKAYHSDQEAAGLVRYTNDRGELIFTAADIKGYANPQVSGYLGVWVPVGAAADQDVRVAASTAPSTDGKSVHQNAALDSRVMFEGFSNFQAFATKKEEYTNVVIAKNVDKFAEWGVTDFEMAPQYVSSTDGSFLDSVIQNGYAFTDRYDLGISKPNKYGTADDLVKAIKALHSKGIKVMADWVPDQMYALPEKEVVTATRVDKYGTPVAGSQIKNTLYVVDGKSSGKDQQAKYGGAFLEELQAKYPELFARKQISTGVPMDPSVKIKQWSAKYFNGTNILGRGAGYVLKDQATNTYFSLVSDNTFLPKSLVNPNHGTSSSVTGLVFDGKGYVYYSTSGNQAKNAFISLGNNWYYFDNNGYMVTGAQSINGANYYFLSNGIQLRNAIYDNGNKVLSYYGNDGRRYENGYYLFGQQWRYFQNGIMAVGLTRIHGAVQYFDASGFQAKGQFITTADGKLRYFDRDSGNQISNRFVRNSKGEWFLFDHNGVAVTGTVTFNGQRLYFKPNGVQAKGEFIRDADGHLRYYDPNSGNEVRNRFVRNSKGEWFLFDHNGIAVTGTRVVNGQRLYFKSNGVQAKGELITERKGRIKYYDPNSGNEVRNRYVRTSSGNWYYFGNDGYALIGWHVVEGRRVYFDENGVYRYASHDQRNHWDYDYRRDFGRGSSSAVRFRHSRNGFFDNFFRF
Briefly: dynamic light scattering glucan polymerization assay with recombinant GTF-C at […] sucrose; also pNPG hydrolysis kinetics and gel zymography. Type of experiment: biochemical.

T1 sequence (P08987 35-1476): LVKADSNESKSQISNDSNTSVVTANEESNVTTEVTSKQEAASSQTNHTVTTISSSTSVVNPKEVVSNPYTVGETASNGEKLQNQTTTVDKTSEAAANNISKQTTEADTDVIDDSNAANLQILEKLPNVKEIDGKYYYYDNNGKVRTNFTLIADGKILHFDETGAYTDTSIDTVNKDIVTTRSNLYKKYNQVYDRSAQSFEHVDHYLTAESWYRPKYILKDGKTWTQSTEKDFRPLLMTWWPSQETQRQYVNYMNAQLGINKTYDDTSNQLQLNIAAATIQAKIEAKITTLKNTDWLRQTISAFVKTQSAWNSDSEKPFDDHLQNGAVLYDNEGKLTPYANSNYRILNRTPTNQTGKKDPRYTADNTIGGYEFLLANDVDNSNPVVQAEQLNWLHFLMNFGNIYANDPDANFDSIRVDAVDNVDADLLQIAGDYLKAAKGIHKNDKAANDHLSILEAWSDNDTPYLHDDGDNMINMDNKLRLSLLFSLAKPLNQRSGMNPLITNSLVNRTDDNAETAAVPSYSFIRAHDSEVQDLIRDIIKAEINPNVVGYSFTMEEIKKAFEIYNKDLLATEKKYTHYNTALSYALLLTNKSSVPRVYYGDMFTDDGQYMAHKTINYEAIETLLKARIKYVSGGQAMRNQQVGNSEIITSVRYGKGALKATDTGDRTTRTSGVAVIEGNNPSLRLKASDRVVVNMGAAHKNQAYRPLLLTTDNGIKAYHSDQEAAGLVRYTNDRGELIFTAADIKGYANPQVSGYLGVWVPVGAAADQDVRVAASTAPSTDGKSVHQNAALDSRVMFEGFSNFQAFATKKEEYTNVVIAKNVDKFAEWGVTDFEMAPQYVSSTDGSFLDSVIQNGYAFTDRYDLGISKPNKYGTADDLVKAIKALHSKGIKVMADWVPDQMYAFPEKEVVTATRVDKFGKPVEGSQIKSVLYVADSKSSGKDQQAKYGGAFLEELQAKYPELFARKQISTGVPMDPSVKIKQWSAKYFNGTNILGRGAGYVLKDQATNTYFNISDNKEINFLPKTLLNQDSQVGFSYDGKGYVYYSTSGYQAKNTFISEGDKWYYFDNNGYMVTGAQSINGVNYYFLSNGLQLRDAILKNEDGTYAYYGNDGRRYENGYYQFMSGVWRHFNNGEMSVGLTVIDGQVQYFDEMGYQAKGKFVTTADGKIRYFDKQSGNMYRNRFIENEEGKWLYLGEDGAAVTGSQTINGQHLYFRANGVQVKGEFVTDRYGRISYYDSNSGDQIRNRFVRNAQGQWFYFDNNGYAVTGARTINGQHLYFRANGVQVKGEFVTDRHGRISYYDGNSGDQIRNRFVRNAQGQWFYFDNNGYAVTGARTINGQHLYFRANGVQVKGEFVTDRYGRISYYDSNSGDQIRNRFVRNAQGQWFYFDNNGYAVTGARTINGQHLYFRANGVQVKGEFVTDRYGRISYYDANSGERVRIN

For the compound `NC(=O)c1cc(OCCOCCOCCOCCO)ccc1NC(=O)c1cc2cc([N+](=O)[O-])ccc2s1` [G43-C3-TEG], on GTF-B, the “% reduction of Vmax” value is on record as 39 % reduction of Vmax. Besides, the IC50 at GTF-C turned out to be 23.5 µM.
